Results: PubChem BioAssay (NCI)
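Following 48 hours of exposure in 96-well plates, responses at five concentrations were used to interpolate endpoints linearly. TGI: concentration producing complete growth inhibition.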

Experiments:
Assay in all cases: DTP human tumour cell line panel, 48 h
[1] = tested on: 786-0 renal
[2] = tested on: A498 renal
[3] = tested on: A549 NSCLC
[4] = tested on: ACHN renal
[5] = tested on: CAKI-1 renal
[6] = tested on: CCRF-CEM leukemia
[7] = tested on: COLO 205 colon
[8] = tested on: DLD-1 colon
[9] = tested on: DMS 114 small cell lung
[10] = tested on: DMS 273 small cell lung
[11] = tested on: EKVX NSCLC
[12] = tested on: HCC-2998 colon
[13] = tested on: HCT-116 colon
[14] = tested on: HCT-15 colon
[15] = tested on: HL-60(TB) leukemia
[16] = tested on: HOP-18 NSCLC
[17] = tested on: HOP-62 NSCLC
[18] = tested on: HOP-92 NSCLC
[19] = tested on: IGROV1 ovarian
[20] = tested on: K-562 leukemia
[21] = tested on: KM12 colon
[22] = tested on: KM20L2 colon
[23] = tested on: LOX IMVI melanoma
[24] = tested on: LXFL 529 NSCLC
[25] = tested on: M14 melanoma
[26] = tested on: M19-MEL melanoma
[27] = tested on: MALME-3M melanoma
[28] = tested on: MOLT-4 leukemia
[29] = tested on: NCI-H226 lung
[30] = tested on: NCI-H23 lung
[31] = tested on: NCI-H460 lung
[32] = tested on: NCI-H522 lung
[33] = tested on: OVCAR-3 ovarian
[34] = tested on: OVCAR-4 ovarian
[35] = tested on: OVCAR-5 ovarian
[36] = tested on: OVCAR-8 ovarian
[37] = tested on: RPMI-8226 leukemia
[38] = tested on: RXF 393 renal
[39] = tested on: RXF-631 renal
[40] = tested on: SF-268 CNS
[41] = tested on: SF-295 CNS
[42] = tested on: SF-539 CNS
[43] = tested on: SK-MEL-2 melanoma
[44] = tested on: SK-MEL-28 melanoma
[45] = tested on: SK-MEL-5 melanoma
[46] = tested on: SK-OV-3 ovarian
[47] = tested on: SN12C renal
[48] = tested on: SNB-19 CNS
[49] = tested on: SNB-75 CNS
[50] = tested on: SNB-78 CNS
[51] = tested on: SW-620 colon
[52] = tested on: TK-10 renal
[53] = tested on: U251 CNS
[54] = tested on: UACC-257 melanoma
[55] = tested on: UACC-62 melanoma
[56] = tested on: UO-31 renal
[57] = tested on: XF 498 CNS
[58] = tested on: HT29 colon

Q: For `Cc1nc(Nc2ccc(Cl)cc2)sc1C(=O)NNC(=S)NN`, which TGI [1] is on record?
A: 30.2 µM

Q: What about the TGI [2] of the same molecule?
A: 29.1 µM

Q: What about the TGI [3] of the same molecule?
A: 39.6 µM

Q: What about the TGI [4] of the same molecule?
A: 45.7 µM

Q: And the TGI [5]?
A: 44.8 µM

Q: What about the TGI [6] of the same molecule?
A: 88.5 µM

Q: And the TGI [7]?
A: 43.6 µM

Q: What about the TGI [8] of the same molecule?
A: 30.7 µM

Q: And the TGI [9]?
A: 39 µM

Q: And the TGI [10]?
A: 36.2 µM

Q: And the TGI [11]?
A: 46.8 µM

Q: What about the TGI [12] of the same molecule?
A: 28.8 µM

Q: And the TGI [13]?
A: 30.8 µM

Q: What about the TGI [14] of the same molecule?
A: 45.5 µM

Q: What about the TGI [15] of the same molecule?
A: 50.2 µM

Q: What about the TGI [16] of the same molecule?
A: 33.5 µM

Q: What about the TGI [17] of the same molecule?
A: 33 µM

Q: And the TGI [18]?
A: 43.2 µM

Q: And the TGI [19]?
A: 63 µM

Q: What about the TGI [20] of the same molecule?
A: 99 µM

Q: And the TGI [21]?
A: 42.3 µM

Q: And the TGI [22]?
A: 32.5 µM

Q: What about the TGI [23] of the same molecule?
A: 29.5 µM

Q: And the TGI [24]?
A: 36.4 µM

Q: What about the TGI [25] of the same molecule?
A: 35.1 µM

Q: And the TGI [26]?
A: 40.7 µM

Q: And the TGI [27]?
A: 35.5 µM

Q: What about the TGI [28] of the same molecule?
A: 58.6 µM

Q: And the TGI [29]?
A: 38 µM

Q: And the TGI [30]?
A: 33.4 µM

Q: What about the TGI [31] of the same molecule?
A: 38.3 µM

Q: What about the TGI [32] of the same molecule?
A: 34.8 µM

Q: And the TGI [33]?
A: 39.5 µM

Q: What about the TGI [34] of the same molecule?
A: 32.7 µM

Q: What about the TGI [35] of the same molecule?
A: 31.4 µM

Q: What about the TGI [36] of the same molecule?
A: 43.7 µM

Q: And the TGI [37]?
A: 79.5 µM

Q: What about the TGI [38] of the same molecule?
A: 27.6 µM

Q: What about the TGI [39] of the same molecule?
A: 36.1 µM

Q: What about the TGI [40] of the same molecule?
A: 48.5 µM

Q: What about the TGI [41] of the same molecule?
A: 34.1 µM

Q: What about the TGI [42] of the same molecule?
A: 31.8 µM

Q: And the TGI [43]?
A: 33.4 µM

Q: And the TGI [44]?
A: 35 µM

Q: And the TGI [45]?
A: 32.9 µM

Q: And the TGI [46]?
A: 54 µM

Q: What about the TGI [47] of the same molecule?
A: 34.3 µM

Q: And the TGI [48]?
A: 34.8 µM

Q: And the TGI [49]?
A: 64.3 µM

Q: What about the TGI [50] of the same molecule?
A: 57.2 µM

Q: And the TGI [51]?
A: 38.1 µM

Q: And the TGI [52]?
A: 45.1 µM

Q: What about the TGI [53] of the same molecule?
A: 32.3 µM

Q: What about the TGI [54] of the same molecule?
A: 27.3 µM

Q: And the TGI [55]?
A: 33.7 µM

Q: And the TGI [56]?
A: 30.2 µM

Q: And the TGI [57]?
A: 38.4 µM

Q: How did the TGI [1] turn out when `O=C(OC1CCC(=C2SCCCS2)[C@H]1C1SCCCS1)c1ccccc1` (stereo not given in full) was run?
A: > 100 µM

Q: What about the TGI [2] of the same molecule?
A: > 100 µM

Q: What about the TGI [3] of the same molecule?
A: > 100 µM

Q: What about the TGI [4] of the same molecule?
A: > 100 µM

Q: What about the TGI [6] of the same molecule?
A: > 100 µM

Q: What about the TGI [7] of the same molecule?
A: > 100 µM

Q: What about the TGI [8] of the same molecule?
A: > 100 µM

Q: What about the TGI [9] of the same molecule?
A: > 100 µM

Q: What about the TGI [10] of the same molecule?
A: > 100 µM

Q: What about the TGI [11] of the same molecule?
A: > 100 µM

Q: And the TGI [12]?
A: > 100 µM

Q: What about the TGI [13] of the same molecule?
A: > 100 µM

Q: What about the TGI [14] of the same molecule?
A: > 100 µM

Q: What about the TGI [15] of the same molecule?
A: > 100 µM

Q: And the TGI [17]?
A: > 100 µM

Q: What about the TGI [18] of the same molecule?
A: > 100 µM

Q: And the TGI [58]?
A: > 100 µM

Q: What about the TGI [19] of the same molecule?
A: > 100 µM

Q: What about the TGI [20] of the same molecule?
A: > 100 µM

Q: What about the TGI [21] of the same molecule?
A: > 100 µM

Q: And the TGI [22]?
A: > 100 µM

Q: And the TGI [23]?
A: > 100 µM

Q: What about the TGI [24] of the same molecule?
A: > 100 µM

Q: And the TGI [25]?
A: > 100 µM

Q: And the TGI [26]?
A: > 100 µM

Q: What about the TGI [27] of the same molecule?
A: > 100 µM

Q: What about the TGI [28] of the same molecule?
A: > 100 µM

Q: What about the TGI [29] of the same molecule?
A: > 100 µM

Q: What about the TGI [30] of the same molecule?
A: > 100 µM

Q: What about the TGI [31] of the same molecule?
A: > 100 µM

Q: What about the TGI [33] of the same molecule?
A: > 100 µM

Q: And the TGI [34]?
A: > 100 µM

Q: And the TGI [36]?
A: > 100 µM

Q: And the TGI [37]?
A: > 100 µM

Q: And the TGI [38]?
A: > 100 µM

Q: And the TGI [39]?
A: > 100 µM

Q: And the TGI [41]?
A: > 100 µM

Q: And the TGI [42]?
A: > 100 µM

Q: And the TGI [43]?
A: > 100 µM

Q: And the TGI [46]?
A: > 100 µM

Q: What about the TGI [47] of the same molecule?
A: > 100 µM

Q: What about the TGI [48] of the same molecule?
A: > 100 µM

Q: What about the TGI [51] of the same molecule?
A: > 100 µM

Q: And the TGI [52]?
A: > 100 µM

Q: What about the TGI [53] of the same molecule?
A: > 100 µM

Q: What about the TGI [54] of the same molecule?
A: > 100 µM

Q: And the TGI [55]?
A: > 100 µM

Q: What about the TGI [56] of the same molecule?
A: > 100 µM
